{
  "source": "patent US20220280513A1",
  "about": "“ENHANCING THE ANTIVIRAL EFFICACY OF RNA VIRUS INHIBITION BY COMBINATION WITH MODULATORS OF PYRIMIDINE METABOLISM” (The Board of Trustees of the Leland Stanford Junior …, priority 2019, published 2022)",
  "key": {"[1]": {"details": "dose of 1 g/kg; cited from earlier work"}, "[2]": {"system": "intracellular uridine and cytidine nucleotide levels", "test": "LC-MS/MS analysis of intracellular nucleotides in A549 cells", "format": "cell-based", "details": "250 μM with 1 μM GSK983, 5 μM uridine, 6 h", "protocol": "FIG. 7. LC-MS analysis of intracellular nucleotides. (A) LC-MS analysis of intracellular uridine and cytidine nucleotide levels after 6 h treatments. In all assays, the culture medium was supplemented with 5 μM uridine and 1 μM GSK983. Error bars represent ±S.D. of two replicates. (B) LC-MS detection of mono-, di- and tri-phosphates of CPU and 5-F-CPU in cells. LC-MS/MS was performed on an Agilent 1290 infinity II LC system tandem with 6370 triple quad mass spectrometer using ion pairing chromatography. LC separation was performed at 40° C. with a solvent flow rate of 0.25 mL/min on a Zorbax RRHD Extended-C18 column (2.1×150 mm, 1.8 μM). Buffer A contained 97% H2O, 3% MeOH, 5 mM tributylamine, 5.5 mM Acetic acid and 1 μM medronic acid with pH=5.0; Buffer B contains ca. 100% MeOH, 5 mM tributylamine, 5.5 mM Acetic acid and 5 μM medronic acid with pH=7.0 The initial mobile phase composition was 100% solvent A, and a constant or linear gradient was applied after sample injection with eluent B varying as follows: 0% at 2.5 min, 20% at 7.5 min, 45% at 14 min, 99% at 20 to 23 min, and 0% from 23.1 to 27.1 min. […] Samples were measured in the negative ESI mode with capillary voltage at −3.5 kV. […]\nWith optimized sampling and detection method in hand, pyrimidine nucleotide levels were measured in cells cultured with either 250 μM CPU, 5-F-CPU or 5′-F-CPU in combination with 1 μM GSK983 (FIG. 7A). […]"}, "[3]": {"system": "DENV-2 virus", "test": "Pilot antiviral assay, DENV-Luc replication in A549 cells (FIG. 2)", "format": "cell-based, dengue serotype 2 (DENV-2) strain 16681", "protocol": "We therefore focused our efforts on evaluating CPU in combination with GSK983. Using an infectious clone of dengue serotype 2 (DENV-2) strain 16681 engineered to express a luciferase reporter, the efficacy and cytotoxicity of combinations of GSK983 and CPU were assessed in infected or uninfected cultures of the A549 lung carcinoma cell line (FIG. 2). […] However, a combination of 0.2 μM GSK and 250 μM CPU inhibited ca. 50% of virus replication.\nDENV-Luc reporter virus generation: The design of the pDENV-Luc infectious clone derived from dengue serotype 2 (DENV-2) strain 16681 was described in detail by Marceau et al (Marceau et al., 2016). The plasmid was linearized with Xbal and in vitro transcribed into the genomic RNA of DENV-Luc virus using the T7 Megascript Kit (Ambion) in the presence of m7G(5′)ppp(5′)G RNA Cap Structure Analog (NEB). 5 μg DENV-Luc RNA was electroporated into 2×10^6 Vero cells. The transfected cells were resuspended with Dulbecco's modified Eagle's medium (DMEM; Invitrogen) with 10% FBS and 100 U/ml penicillin-streptomycin and transferred into a T-175 flask incubated at 37° C. with 5% CO2. Supernatants were collected and replenished with fresh medium every 24 h from day 17 to 24 post-transfection, pooled together, clarified by centrifugation and stored in aliquots at −80° C. The amount of infectious DENV-Luc virus in the stock was titrated using the TCID50 assay and calculated by the Spearman & Kärber algorithm as described previously (Hierholzer and Killington, 1996).\nPilot Antiviral Assays (for FIG. 2): A549 cells were plated overnight at 20,000 cells/well in 24-well plates in complete DMEM and incubated for 24 h at 37° C. Cell were then treated with pyrimidine de novo synthesis and/or salvage inhibitors in DMEM supplemented with 20 μM uridine. Four hours after drug addition, cells were infected with DENV-2 virus at a MOI=0.01. After 48 h, DENV-Luc replication was monitored by the production of Renilla luciferase, which was measured using the Renilla-Glo Luciferase Assay System (Promega) according to the specifications of the manufacturer. For the accompanying cell viability assay, A549 cells were seeded into 24-well plates at a density of 20,000 cells/well incubated for 24 h at 37° C. Cell were then treated with pyrimidine de novo synthesis and/or salvage inhibitors in DMEM supplemented with 20 μM uridine. Following 48h treatment, cells were harvested, and the density of viable cells was determined by flow cytometry (FSC/SSC) using a BD Accuri C6 Flow Cytometer."}},
  "data": [
    {"smiles": "O=c1ccn([C@@H]2C=C(CO)[C@@H](O)[C@H]2O)c(=O)[nH]1", "note": "[CPU, 1-((1R,4R,5S)-4,5-dihydroxy-3-(hydroxymethyl)cyclopent-2-en-1-yl)pyrimidine-2,4(1H,3H)-dione]", "values": [
      {"measurement": "toxicity in mice", "setting": "[1]", "result": "does not show appreciable toxicity"},
      {"measurement": "depletion of UTP and CTP concentrations", "setting": "[2]", "result": "more strongly than 5-F-CPU"},
      {"measurement": "decrease of DENV-2 titer, synergy", "setting": "[3]; CPU combined with GSK983, exogenous uridine", "result": "synergized with GSK983"},
      {"measurement": "virus replication", "setting": "[3]; CPU dose of 1 mM in combination with GSK, 20 μM exogenous uridine", "result": "suppressed almost completely"},
      {"measurement": "inhibition of replication of DENV-2 virus, single agent", "setting": "[3]; alone, 20 μM exogenous uridine", "result": "neither GSK nor CPU alone inhibited replication"},
      {"measurement": "inhibition of virus replication", "setting": "[3]; combination of 0.2 μM GSK and 250 μM CPU, 20 μM exogenous uridine", "result": "ca. 50%"}
    ]}
  ]
}
